Values quoted from earlier work in US6132766A, “Multivesicular liposomes with controlled release of encapsulated biologically active substances” (priority 1998, dated 2000).

Columns and labels:
[1] = unencapsulated drug; about
[2] = test system: strains of both gram negative and gram positive bacteria; settings: background statement

What does the source list for `NCC[C@H](O)C(=O)N[C@@H]1C[C@H](N)[C@@H](O[C@H]2O[C@H](CN)[C@@H](O)[C@H](O)[C@H]2O)[C@H](O)[C@H]1O[C@H]1O[C@H](CO)[C@@H](O)[C@H](N)[C@H]1O` [amikacin]?
serum half-life [1]: two to three; activity against strains of both gram negative and gram positive bacteria [2]: clinically significant activity
